The test system of data set [1] is P. falciparum W2 strain (chloroquine resistant). Put plainly: In vitro antiplasmodial activity. Format: cell-based, Plasmodium falciparum. As to conditions: read-out: IC50 ± SD (drug concentration that reduced parasite viability in 50%). An excerpt:
P. falciparum continuous culture was maintained as previously described with minor modifications. […] The parasites at early stages were synchronized at ring stage by sorbitol treatment. Initial parasitemia was adjusted to 0.5% with 2% hematocrit in all experiments.
In vitro antiplasmodial activity of the bufadienolides (compounds dehydrobufotenin, marinobufotoxin, marinobufagin and bufalin) was done in 96 well plates. The growth inhibition of intraerythrocytic forms and parasite morphology in culture was assessed by microscopic observation of the Giemsa-stained thin blood films. Ring stage parasites (0.5% parasitemia and 2% hematocrit) were added to each well of 96-well microculture plates. The compounds (dehydrobufotenin, marinobufotoxin, marinobufagin and bufalin) were dissolved in DMSO and diluted to concentrations ranging from 0.78 to 100 μg/mL using complete medium and stored a 4 °C. After incubation at 37 °C for 48 hours, P. falciparum growth inhibition was assessed in Giemsa-stained smears by observing 5,000 erythrocytes per 1 thin blood film in triplicate. The culture medium was replaced with fresh medium with or without test samples/control drugs. […] All experiments were performed in triplicate.
(§1) The coefficients of regression of these curves were calculated using the method of least squares. The LD50 were determined based on the equation of the curve obtained by plotting the % of cellular death versus the concentration of compound (GraphPad Prism Software, version 5.0 for Windows, San Diego, California, USA). The average IC50 and LD50 were compared using ANOVA. Statistical significance was defined at the 5% level (P<0.05).

Data set [2] has as its system WI-26VA4 human pulmonary fibroblast cells. Briefly: In vitro cytotoxicity, MTT assay. Format: cell-based. As to conditions: for SI (selectivity index): SI = LD50 Cell / IC50 P. falciparum, WI-26VA4 vs W2; for LD50 ± SD (lethal drug concentration that reduced WI-26VA4 cells viability in 50%): WI-26VA4 human pulmonary fibroblast cells, MTT, 24 hours, mean and SD of triplicate experiments. As for the experimental part:
The cells were washed with culture medium, trypsinized, distributed in a flat-bottomed 96-well plate (5×10^3 cells/well), and incubated for 18 hours at 37 °C for cell adherence. The compounds (20 μL) were diluted in different concentrations ranging from 0.2 - 200 μg/mL and incubated with the cells for 24 hours in a 5% CO2 atmosphere at 37 °C.
A 3-(4,5-dimethylthiazol-2-yl)-2,5-diphenyltetrazolium bromide (MTT) solution (5 mg/mL; 20 μL/well) was added to evaluate mitochondrial viability; after a further 3 hours incubation, the supernatants were carefully removed, 100 μL of DMSO was added to each well, and the reactions were mixed to solubilize the formazan crystals. […] The cell viability was expressed as a percentage of the control absorbance in the untreated cells after subtracting the appropriate background.
A selectivity index (SI) corresponding to the ratio between the cytotoxic and antiplasmodial activities of each compound tested. The values greater than 10 were considered indicative of lack of toxicity, whereas the substances with values below 10 were considered toxic. The SI index was calculated as follow:
SI=LD50 Cell/IC50 P.falciparum
as §1
(Tetrazolium dyes change colour on reduction, which living cells bring about.)

Setting [3] is: Plasmodium falciparum, W2, 48 h.

Where two headings read alike, the source gives them in different places. A value given as a limit tells only on which side of the number the result lay.

In the case of `C[C@]12CC[C@H](O)C[C@H]1CC[C@@H]1[C@@H]2CC[C@]2(C)[C@@H](c3ccc(=O)oc3)CC[C@]12O` [Bufalin], in data set [1] (P. falciparum W2 (chloroquine-resistant), 48 hours, Giemsa-stained smears, mean and SD of triplicate experiments), the IC50 stood at 3.44 ± 0.43 µM. In data set [2], the “SI (selectivity index)” value is listed as 7.52 and the “LD50 ± SD (lethal drug concentration that reduced WI-26VA4 cells viability in 50%)” value was determined as 25.9 ± 7.04 µM. Also, the “LD50 ± SD (lethal drug concentration that reduced WI-26VA4 cells viability in 50%)” value in data set [2] (listed as bufalin) worked out at 25.9 µM.

For the compound `CCN(CC)CCCC(C)Nc1ccnc2cc(Cl)ccc12` (stereo not drawn) [Chloroquine (CQ), Chloroquine, reference compound], in data set [1] (setting [3]), the IC50 was 1.04 ± 0.21 µM.

Take `C[N+]1(C)CCc2c[nH]c3ccc(O)c1c23` [Dehydrobufotenine, Dehydrobufotenin]: the IC50 in data set [1] (setting [3]) is 19.1 ± 0.2 µM. Further, in data set [2], the “SI (selectivity index)” value was 12.33 and the “LD50 ± SD (lethal drug concentration that reduced WI-26VA4 cells viability in 50%)” value amounted to 235.76 ± 4.03 µM. Further, in data set [2] (listed as dehydrobufotenin), the “SI (selectivity index)” value is on record as greater than 10 and the “LD50 ± SD (lethal drug concentration that reduced WI-26VA4 cells viability in 50%)” value amounted to 235.76 µM.

Take `CC12CCC(O)CC1(O)CCC1C2CCC2(C)C(c3ccc(=O)oc3)CC3OC312` (stereo not drawn) [Marinobufagin]: the IC50 in data set [1] (setting [3]) was found to be 3.89 ± 0.42 µM. Further, the “SI (selectivity index)” value in data set [2] came out at 0.78. The “LD50 ± SD (lethal drug concentration that reduced WI-26VA4 cells viability in 50%)” value in data set [2] was found to be 3.04 ± 0.25 µM; in data set [2] (listed as marinobufagin), 3.04 µM.

In the case of `CC12CCC(OC(=O)CCCCCCC(=O)NC(CCCNC(=N)N)C(=O)O)CC1(O)CCC1C2CCC2(C)C(c3ccc(=O)oc3)CC3OC312` (stereo not drawn) [Marinobufotoxin, 3-(N-suberoylargininyl) marinobufagin], the IC50 in data set [1] (setting [3]) turned out to be 5.31 ± 0.25 µM. Moreover, in data set [2], the “SI (selectivity index)” value is on record as 1.67 and the “LD50 ± SD (lethal drug concentration that reduced WI-26VA4 cells viability in 50%)” value came out at 8.89 ± 2.66 µM. Further, the “LD50 ± SD (lethal drug concentration that reduced WI-26VA4 cells viability in 50%)” value in data set [2] (listed as marinobufotoxin) turned out to be 8.89 µM.

The values are drawn from PMC7812938, “Dehydrobufotenin extracted from the Amazonian toad Rhinella marina (Anura: Bufonidae) as a prototype molecule for the development of antiplasmodial drugs” (The Journal of Venomous Animals and Toxins Including …, 2021).
